For six compounds, IC50 results are on record in ChEMBL document CHEMBL4825742, “Novel Histone Deacetylase 6 Inhibitors for Treating Alzheimer's Disease and Cancer” (ACS Med Chem Lett, 2021).

The experiment has as its target T1, Protein deacetylase HDAC6 (Homo sapiens, UniProt Q9UBN7).
T1 sequence (Q9UBN7 whole entry): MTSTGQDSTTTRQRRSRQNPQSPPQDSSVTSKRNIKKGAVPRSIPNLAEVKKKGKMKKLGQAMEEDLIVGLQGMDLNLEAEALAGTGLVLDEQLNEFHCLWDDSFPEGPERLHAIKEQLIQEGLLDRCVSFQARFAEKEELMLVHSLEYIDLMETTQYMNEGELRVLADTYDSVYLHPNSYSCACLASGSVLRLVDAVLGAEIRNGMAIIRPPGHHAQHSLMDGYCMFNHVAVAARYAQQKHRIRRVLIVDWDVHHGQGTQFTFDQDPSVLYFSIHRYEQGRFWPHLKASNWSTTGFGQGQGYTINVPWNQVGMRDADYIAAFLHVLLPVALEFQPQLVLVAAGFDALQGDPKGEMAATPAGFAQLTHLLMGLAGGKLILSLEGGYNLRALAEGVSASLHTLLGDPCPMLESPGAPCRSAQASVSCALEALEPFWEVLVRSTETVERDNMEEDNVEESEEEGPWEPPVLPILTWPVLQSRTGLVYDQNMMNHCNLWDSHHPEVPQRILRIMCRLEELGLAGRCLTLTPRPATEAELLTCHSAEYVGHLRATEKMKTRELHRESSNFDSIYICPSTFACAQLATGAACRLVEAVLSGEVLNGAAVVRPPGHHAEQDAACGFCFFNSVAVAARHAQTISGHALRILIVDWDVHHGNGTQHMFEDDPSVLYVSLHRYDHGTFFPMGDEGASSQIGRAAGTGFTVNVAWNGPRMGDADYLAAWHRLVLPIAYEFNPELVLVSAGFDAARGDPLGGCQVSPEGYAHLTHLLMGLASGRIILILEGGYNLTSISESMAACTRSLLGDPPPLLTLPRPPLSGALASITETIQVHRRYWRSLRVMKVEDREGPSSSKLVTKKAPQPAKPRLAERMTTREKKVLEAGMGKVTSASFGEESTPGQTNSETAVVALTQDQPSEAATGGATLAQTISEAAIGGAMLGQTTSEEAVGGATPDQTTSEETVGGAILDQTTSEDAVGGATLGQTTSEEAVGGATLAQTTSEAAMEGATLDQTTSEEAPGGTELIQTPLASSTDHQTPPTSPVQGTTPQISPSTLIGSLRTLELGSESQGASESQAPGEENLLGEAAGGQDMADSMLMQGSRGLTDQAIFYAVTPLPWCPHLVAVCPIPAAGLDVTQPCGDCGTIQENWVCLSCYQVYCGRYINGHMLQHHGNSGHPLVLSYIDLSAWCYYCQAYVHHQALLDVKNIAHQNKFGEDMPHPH
As to the kind of experiment: Inhibition of human full length HDAC6 expressed in baculovirus expression system using FAM-RHKK(Ac)-NH2 as substrate incubated for 5 hrs by […] endpoint assay.

The structures appear in SMILES notation. pIC50: −log10 of the molar value.

For orientation: pIC50 means the IC50 on a negative log10 scale, so that one unit is a factor of ten. Low readings indicate a high IC50, high ones a low IC50. Take `CN1CC2(CCCCC2)CC[C@H]1Cc1cc(F)cc(C(=O)NO)c1`: the negative logarithm of the IC50 (pIC50) was 9.00. On to `O=C(NO)c1cc(F)c2c(c1)CCn1cccc1-2`, for which the pIC50 was 9.00. The compound `O=C(NO)c1cc(F)c2c(c1)CCN(C1CCC1)C2` had a pIC50 of 9.00. Regarding `Cn1c2c(c3ccccc31)CCN(Cc1ccc(C(=O)NO)cc1F)C2`, the pIC50 is 9.00. Compound `CN1Cc2cc(C(=O)NO)ccc2CN1Cc1ccccc1` showed a pIC50 of 9.00. As to `O=C(NO)c1ccc(CN2CC3(CCOC3)C2)c(F)c1`, the pIC50 was 9.00.
